Assay results taken from patent US12521362B2, “Agent for treating, preventing, or improving psychiatric and nervous system disorders or symptoms” (TOKYO UNIVERSITY OF SCIENCE FOUNDATION, priority 2019, dated 2026).

What was measured:
[1] = system: anxiety-like behaviors in mice; experiment: Elevated plus maze (EPM) test of exploration behavior
Text: An elevated plus maze (EPM) apparatus (FIG. 1) was used to assess anxiety-like behaviors in mice administered with any of the test drugs. The EPM apparatus is a plus-shaped maze apparatus with open and closed arms and is used for assessment of anxiety-like behaviors of animals. Animals administered with a benzodiazepine (BZD) anxiolytic drug are known to increase the ratio of time spent in the open arm and the ratio of open arm entries. The EPM test is the most representative test available as a system for evaluating an anxiolytic drug.
Mice were acclimated to the testing laboratory for 60 minutes, and a prepared test drug was then administered to each mouse at a dose of 0.25 mL/20 g. After the elapse of a predetermined period of time from the administration of the drug, the EPM apparatus was used to quantify exploration behavior of the mouse for 5 minutes. The equations below were used to evaluate the effects of each test drug on exploration behavior in mice. Statistical analysis was performed with Dunnett's multiple comparison test, and a significant difference was considered at P<0.05. Time spent in open arm (%)−Time spent in open arm (sec)/{Time spent in open arm (sec)+Time spent in closed arm (sec)}×100 Open arm entry (%)−Open arm entries (times)/{Open arm entries (times)+Closed arm entries (times)}×100 Total arm entries (times)=Open arm entries (times)+Closed arm entries (times) 2.
Disulfiram was administered intraperitoneally to mice (n=8 per group) at a dose of 20, 40, or 80 mg/kg, and the mice were tested 30 minutes after the administration for their exploration behavior by using the EPM apparatus. As a positive control experiment, diazepam, a BZD anxiolytic drug, was administered subcutaneously to mice at a dose of 1.5 mg/kg (equivalent to the dose used clinically for humans), and the mice were similarly tested for their exploration behavior by using the EPM apparatus. A solution of 2% Tween 80, 10% DMSO, and 88% corn oil was administered intraperitoneally to mice in the solvent control group.
Disulfiram was administered to mice (n=8 per group) at a dose of 40 mg/kg, and the mice were tested 15, 30, 60, or 120 minutes after the administration for their exploration behavior by using the EPM apparatus.
Cyanamide was investigated for the presence of an anxiolytic-like effect. Cyanamide or disulfiram was administered to mice (n=6 per group) at a dose of 80 or 40 mg/kg, respectively, and the mice were tested 30 minutes after the administration for their exploration behavior by using the EPM apparatus.
The iron(III) complex of diethyldithiocarbamate (DDC) (Fe(DDC)3) as a disulfiram (DSF)-related compound was investigated for the presence of an anxiolytic-like effect. Each drug was administered intraperitoneally to mice in the Fe(DDC)3 dose group (n=5) and the DDC dose group (n=4) at a dose of 40 mg/kg. A solution of 2% Tween 80, 10% DMSO, and 88% corn oil was administered intraperitoneally to mice in the solvent control group (n=9). Thirty minutes after the administration, the elevated plus maze test was performed for 5 minutes.
The copper complex of DDC (Cu(DDC)2) as a DSF-related compound was investigated for the presence of an anxiolytic-like effect. Cu(DDC)2 was administered orally to mice (n=4) at a dose of 40 mg/kg. A solution of 2% Tween 80, 10% DMSO, and 88% corn oil was administered orally to mice in the solvent control group (n=4). Sixty minutes after the administration, the elevated plus maze test was performed for 5 minutes.

[2] = system: spatial learning ability in mice; experiment: Morris water maze task (WM); format: in vivo, Male C57BL/6J mice; conditions: DSF diet for 4 weeks
Description: To 1 g of an MF diet, 0.8 mg of DSF and 50 mg of sucrose or only 50 mg of sucrose (without DSF) were added to prepare a DSF diet or a control diet, respectively, as a solid diet. Next, the Morris water maze task (WM) was conducted to assess spatial learning ability in mice administered with any of the test drugs. The WM is widely used for assessing spatial learning and memory in mice (Morris, R. G. M., Learning and Motivation: 1981, 12, 239-260). A WM apparatus was a circular pool of 120 cm in diameter, filled with white-colored water and equipped with a submerged platform (PF) on which a mouse was allowed to stand and rest. Mice were allowed to swim from a randomly selected starting point in the pool, and the distance spent swimming before reaching the hidden platform was measured (FIG. 9A). […] Thus, the spatial learning ability can be assessed based on the distance traveled to find the platform. […] The effect of a test drug on spatial memory formation was evaluated from the ratio of time spent exploring the area at each probe trial after the platform was removed from the original location. […] At the WM learning trials, the distance spent swimming before reaching the platform was measured every day to evaluate the effect of each test drug on the spatial learning of the mice. Moreover, the effect of each test drug on the spatial memory formation in the mice was evaluated at the probe trials.

[3] = system: object recognition function in mice; experiment: Novel object location task (NOL), memory retrieval task; format: in vivo, Male C57BL/6J mice; conditions: DSF diet (0.8 mg DSF per 1 g diet) for 3 weeks; p<0.05 (FIG. 8)
Description: To 1 g of an MF diet, 0.8 mg of DSF and 50 mg of sucrose or only 50 mg of sucrose (without DSF) were added to prepare a DSF diet or a control diet, respectively, as a solid diet. The novel object location task (NOL) was conducted to assess object recognition function in mice administered with any of the test drugs. The NOL is a test used to evaluate the ability to remember the location of an object (Dix, S. L. & Aggleton, J. P., Behav Brain Res: 1999 March; 99(2): 191-200). Mice were placed in a 33 cm square white box (open field: OF) and allowed to explore the white box freely for 10 minutes every day in the period of 3 days (acclimation). On Day 4, two objects with the same shape were placed in the OF apparatus, and the mice were allowed to learn the locations of the objects (FIG. 8; learning). On Day 5, one of the objects was relocated to a location that was different from the original location during the learning tasks, and the mice were allowed to explore the objects for 5 minutes, and the length of time spent exploring the objects was measured (FIG. 8; memory retrieval task). […] In the NOL memory retrieval task, the length of time spent exploring each object was measured to evaluate the effect of each test drug on the cognitive ability of the mice.

[4] = system: wild-type APP-transfected cells; conditions: in vitro, cultured cells; data of Patent Document 3; cited from earlier work
[5] = system: mouse models of depression (SDS models); experiment: Social interaction (SI) test after social defeat stress (SDS models); format: in vivo, C57BL/6J mice; conditions: DSF diet freely for 3 months, then SDS for 10 days; control group SI time significantly decreased (FIG. 11)
Description: To 1 g of an MF diet, 0.8 mg of DSF and 50 mg of sucrose or only 50 mg of sucrose (without DSF) were added to prepare a DSF diet or a control diet, respectively, as a solid diet. C57BL/6J mice were allowed to eat the DSF diet (200 mg/day) freely for 3 months and then exposed to social defeat stress (SDS) for 10 days to create mouse models of depression (SDS models) (Golden S. A. et al., Nat Protoc. Vol. 6, No. 8, pp. 1183-1191, 2011). The SDS models were created by placing a single C57BL/6J mouse in a home cage where a male ICR mouse had been housed for a long period of time and exposing the mouse to physical aggression by the ICR mouse. In this study, the stress exposure was applied for 10 minutes a day in a period of consecutive 10 days. Depressive-like symptoms were evaluated by the social interaction (SI) test (Golden S. A. et al., 2011, supra). An apparatus composed of an open field apparatus (45 cm×45 cm×30 cm) and a mesh cage (8 cm×6 cm×30 cm) placed on one side of the open field apparatus was used to perform the SI test, in which the time (SI time) spent by the C57BL/6J mouse approaching and making contact with the ICR mouse (Target) in the mesh cage during the measurement time (2.5 minutes) was compared with that in the absence of the ICR mouse (Non-target).

[6] = system: hyperemotional response and hyperactivity in mice; experiment: Hyperemotional response and hyperactivity after chronic administration; format: in vivo, ICR mice; conditions: DSF diet freely for 3 months
Description: To 1 g of an MF diet, 0.8 mg of DSF and 50 mg of sucrose or only 50 mg of sucrose (without DSF) were added to prepare a DSF diet or a control diet, respectively, as a solid diet. ICR mice were allowed to eat the DSF diet (200 mg/day) freely for 3 months to assess hyperemotional response and hyperactivity. Hyperemotional response was evaluated in those mice according to the method of Kelly et al., (Kelly, J. P. et al., Pharmacol. Ther. Vol. 74, No. 3, pp. 299-316, 1997) by individually scoring (A) the response to an object placed in front of the nose, (B) the response to air blown thereon, or (C) the resistance to handling, based on the following criteria of emotional responses: • 0: no response; • 1: interest in the object, or only a slight movement, or easy to handle; • 2: protective or evasive actions against the object, or expression of surprise, or nervous but still easy to handle; • 3: aggressive actions such as biting, or clear expression of surprise, or nervous and difficult to handle; • 4: highly aggressive actions, or expression of surprise with jumping, or quite difficult to handle. The hyperactivity of each mouse was measured over a period of 30 seconds by counting the number of times the mouse crossed the lines that divided the floor of a cage to four areas.

[7] = 80 mg/kg, 30 minutes after administration (FIG. 5)
[8] = subcutaneous 1.5 mg/kg, positive control (FIG. 3)
[9] = 40 mg/kg, time course 15-120 minutes
[10] = intraperitoneal 20, 40 or 80 mg/kg, 30 minutes after administration, dose-dependent, vs solvent control (FIG. 2)
[11] = intraperitoneal 40 mg/kg, 30 minutes, two mice with no sedative effect (FIG. 6)
[12] = oral 40 mg/kg, sixty minutes after administration (FIG. 7)

N#CN [Cyanamide, cyanamide (H2 N—CN)]
anxiolytic-like effect [1, 7]: no anxiolytic-like effect
ratio of open arm entries [1, 7]: no significant effects
ratio of time spent in the open arm [1, 7]: no significant effects

CN1C(=O)CN=C(c2ccccc2)c2cc(Cl)ccc21 [diazepam, Diazepam]
ratio of open arm entries [1, 8]: increased
ratio of time spent in the open arm [1, 8]: increased

CCN(CC)C(=S)SSC(=S)N(CC)CC [disulfiram, tetraethylthiuram disulfide]
distance traveled to find the platform ([2]; Days 4 and 6, p<0.05 vs control diet (FIG. 9A)): shorter
time spent for exploring the platform area at the probe trial ([2]; probe trial on Day 5, p<0.05 vs control diet (FIG. 9B)): significantly longer
time spent exploring the relocated object vs the object remaining at the original location [3]: significantly longer
secretion of sAPPα [4]: promote secretion of sAPPα
ratio of time spent in the open arm ([1]; 40 mg/kg, tested 15, 30, 60 or 120 minutes after administration, increased from 15 minutes (FIG. 4)): significantly increased
effect observed till (time after the administration) [1, 9]: 60 min
time of peak anxiolytic-like effect [1, 9]: 30 min
anxiolytic-like effect ([1]; disulfiram 40 mg/kg to 80 mg/kg i.p. compared with diazepam 1.5 mg/kg s.c.): comparable to that of diazepam
ratio of open arm entries [1, 10]: significantly increased
ratio of time spent in the open arm [1, 10]: significantly increased
SI time in the presence of the Target vs Non-target [5]: any change in SI time was not observed
hyperemotional response (score) ([6]; vs control diet group (FIG. 10A)): significant decreases
hyperactivity (line crossings in 30 seconds) ([6]; vs control diet group (FIG. 10B)): significant decreases

CCN(CC)C(=S)[S-].CCN(CC)C(=S)[S-].CCN(CC)C(=S)[S-].[Fe+3] [Fe(DDC)3, diethyldithiocarbamic acid ferric salt]
anxiolytic-like effect ([1]; intraperitoneal 40 mg/kg, 30 minutes (FIG. 6)): confirmed to have an anxiolytic-like effect
sedative effect ([1]; intraperitoneal 40 mg/kg, 30 minutes, observed in three mice of n=5, no exploration): strong sedative effect
ratio of open arm entries [1, 11]: significantly increased
ratio of time spent in the open arm [1, 11]: significantly increased

copper diethyldithiocarbamate [Cu(DDC)2]
anxiolytic-like effect [1, 12]: confirmed to have an anxiolytic-like effect
ratio of time spent in the open arm [1, 12]: significantly increased
ratio of open arm entries ([1]; oral 40 mg/kg, sixty minutes after administration, not significantly different (FIG. 7)): clear tendency to increase
